≈ marks a conversion by molar mass, not a printed value. Entries after “also recorded” stand apart in the source; their conditions may differ. Read-outs that look alike come from different tables or passages of the source.
How the values were obtained:
[1] = tested on: amastigotes of L. donovani; settings: ref Kaiser et al., 2000; cited from earlier work
[2] = Cytotoxicity to macrophages; assay type: cell-based, mice; settings: BALB/c, mouse, peritoneal macrophages
[3] = tested on: peritoneal macrophages from BALB/c mice; assay: Cytotoxicity to macrophages; assay type: cell-based; settings: peritoneal macrophages from BALB/c mice
[4] = compared with EEEp and FDCMEp, ref Albuquerque et al., 2023, cited from earlier work
HepG2 = tested on: HepG2; parameters: method as in Gomes et al., 2021; settings: exposure for 24 h, compared with EEEp and FDMEp; ref Gomes et al., 2021; cited from earlier work
[5] = tested on: intracellular amastigote forms of L. amazonensis; assay: Anti-amastigote assay in infected murine macrophages (Giemsa count); assay type: cell-based, Leishmania amazonensis; settings: 500, 250 and 125 μg/mL, 72 h
Experimental: Murine macrophages (4 × 10^5 cells) were seeded on round glass coverslips into 24-well culture plates (Nunc) in RPMI 1640 medium (Sigma and Aldrich), supplemented with 20% fetal bovine serum (FBS), 2 mM L-glutamine, penicillin 50 IU/mL, and streptomycin 50 μg/mL, pH 7.4. After 24 h of incubation at 35°C in 5% CO2, promastigotes of L. amazonensis in stationary phase were added to the wells (4 × 10^6 parasites) to promote infection of macrophages, and the cultures were incubated for 4 h at 35°C in 5% CO2. Next, the free parasites were removed by extensive washing with RPMI 1640 medium, and the infected macrophages were quantified and treated with the extract, FA2, FA3, fraction FA4, and isoeleutherin (500–125 μg/mL, each) for 72 h at 35°C in 5% CO2. The negative control consisted of infected macrophages and culture medium. The positive control used AmpB (100–25 μg/mL). Then, coverslips were stained with Giemsa, and the percentage of inhibition of intramacrophage viability of Leishmania was determined by counting the number of amastigotes per 100 macrophages on each coverslip, under a light microscope (×100 magnification). The presented data were performed in triplicate, and the IC50 was determined using GraphPad Prism version 5.04 ([Silva, 2005]).

[6] = tested on: Plasmodium falciparum sensitive to chloroquine; parameters: method as in Vale et al., 2020; settings: ref Vale et al., 2020; cited from earlier work
[7] = tested on: promastigotes of L. amazonensis; assay: Inhibition of growth/viability of L. amazonensis promastigotes (MTT); assay type: cell-based; settings: Leishmania amazonensis
Experimental: Inhibition of Leishmania growth was evaluated in vitro by cultivating promastigotes of L. amazonensis in stationary phase (5×10^6 parasites) in the presence of the extract, fractions and isoeleutherin (200–3.125 μg/mL) in 96-well culture plates (Nunc, Nunclon®, Roskilde, Denmark), for 72 h at 26°C. Viability was assessed by measuring the cleavage of MTT [3-(4,5-dimethylthiazol-2-yl)-2,5-diphenyl tetrazolium bromide] (Sigma) ([Ngure et al., 2009]). Absorbances were measured using a multiwell scanning spectrophotometer (Molecular Devices, Spectra Max Plus, Canada) at 490 nm. Amphotericin B (AmpB) was used as a positive control (25–0.3906 μg/mL). The concentration of products required to inhibit 50% of the viability of L. amazonensis (IC50) was determined by applying a sigmoidal regression of the individual concentration response curves of the compounds. The data are representative of independent experiments, carried out in triplicate, which presented similar results ([Mota et al., 2011]).

Th cells = tested on: Th cells; parameters: method as in Hong et al., 2008; settings: ref Hong et al., 2008; cited from earlier work
[8] = tested on: amastigotes of L. amazonensis; parameters: method as in Cunha-Junior et al., 2011; settings: ref Cunha-Junior et al., 2011; cited from earlier work
Allium cepa = tested on: Allium cepa; parameters: method as in Castro et al., 2021a; settings: Allium cepa model, 12.5 μg/mL in 72 h; ref Castro et al., 2021a; cited from earlier work

Compound: O=C1C=C(C2=CC(=O)c3cccc(O)c3C2=O)C(=O)c2c(O)cccc21 [3,3-Bijuglone]
- IC50 for amastigotes of L. donovani [1]: 15 µg/mL

Compound: CC1=C(C2=C(C)C(=O)c3ccc(OCc4ccccc4)c(O)c3C2=O)C(=O)c2c(ccc(OCc3ccccc3)c2O)C1=O [6,6-Dibenzyloxy-3,3-bi-plumbagin]
- IC50 for amastigotes of L. donovani [1]: 14.2 µg/mL

Compound: C[C@@H]1[C@H](O)[C@@H](C)/C=C/C=C/C=C/C=C/C=C/C=C/C=C/[C@H](O[C@@H]2O[C@H](C)[C@@H](O)[C@H](N)[C@@H]2O)C[C@@H]2O[C@](O)(C[C@@H](O)C[C@@H](O)[C@H](O)CC[C@@H](O)C[C@@H](O)CC(=O)O[C@H]1C)C[C@H](O)[C@H]2C(=O)O [Amphotericin B, reference compound]
- CC50 [2]: > 100 µg/mL

Compound: COc1cccc2c1C(=O)C1=C(C[C@@H](C)O[C@@H]1C)C2=O [Isoeleutherin, isoeleutherin]
- cytotoxicity on macrophages (in words) [3]: did not show cytotoxicity; also recorded: no cytotoxicity
- CC50 [2]: > 500 µg/mL
- genotoxicity / cytotoxicity in the micronucleus test [4]: lowest cytotoxicity
- genotoxicity / cytotoxicity in the micronucleus test ([4]; listed as is eleutherin): less genotoxic
- cytotoxicity in HepG2 (HepG2): the least toxic sample
- anti-amastigote activity (number of amastigotes in infected macrophages vs negative control) [5]: No reductions in the number of amastigotes; also recorded: inactive
- activity in Plasmodium falciparum [6]: active
- IC50 ([7]; parasite form not given, sentence on selectivity index, read-out: IC50 against L. amazonensis): > 200 µg/mL
- IC50 ([7]; promastigotes, 72 h at 26°C, MTT, read-out: IC50 against promastigote form of L. amazonensis): 25 µg/mL (≈ 91.8 µM)
- effect on cytokine production of Th cells (Th cells): selectively stimulating IFNc production

Compound: O=C1C2=C(C(=O)c3ccccc31)[C@H]1Oc3ccccc3[C@H]1CO2 [LQB-118]
- reduction in the number of amastigotes of L. amazonensis [8]: concentration-dependent reduction

Compound: COc1cccc2c1C(=O)C1=C(C[C@H](C)O[C@@H]1C)C2=O [eleutherin]
- percentage of chromosomal aberrations (Allium cepa): higher percentage of chromosomal aberrations than isoeleutherin

Compound: Cc1cc(=O)c2c(C)cc3cc(O)cc(O)c3c2o1 [eleutherinol, reference compound]
- effect on cytokine production of Th cells (Th cells): inhibited the production of IFNc and IL-2
